# According to BindingDB's records for patent US20250346564 (ARase Therapeutics, 2025):
# Target: Poly(ADP-ribose) glycohydrolase (Homo sapiens, UniProt Q86W56)
# Experiment: Inhibition of PARG TEMU Assay
# Description: The ability of the compounds of the Examples to inhibit PARG activity in 4. (trifluoromethyl)umbelliferone (TFMU) assay was determined as described below. PARG inhibitors were added into 384 well plate for a 10-point dose response curve at 1:3 dilutions. TFMU PARG substrate and PARG (250 pM or 2 nM) were then added to the plate to initiate enzymatic reaction. After incubation with the reagent, […] was read. IC50 values were calculated using set control points for 100% inhibition as no enzyme and 0% inhibition 250 pM or 2 nM of PARG enzyme.
# Poly(ADP-ribose) glycohydrolase, sequence (Q86W56 whole entry): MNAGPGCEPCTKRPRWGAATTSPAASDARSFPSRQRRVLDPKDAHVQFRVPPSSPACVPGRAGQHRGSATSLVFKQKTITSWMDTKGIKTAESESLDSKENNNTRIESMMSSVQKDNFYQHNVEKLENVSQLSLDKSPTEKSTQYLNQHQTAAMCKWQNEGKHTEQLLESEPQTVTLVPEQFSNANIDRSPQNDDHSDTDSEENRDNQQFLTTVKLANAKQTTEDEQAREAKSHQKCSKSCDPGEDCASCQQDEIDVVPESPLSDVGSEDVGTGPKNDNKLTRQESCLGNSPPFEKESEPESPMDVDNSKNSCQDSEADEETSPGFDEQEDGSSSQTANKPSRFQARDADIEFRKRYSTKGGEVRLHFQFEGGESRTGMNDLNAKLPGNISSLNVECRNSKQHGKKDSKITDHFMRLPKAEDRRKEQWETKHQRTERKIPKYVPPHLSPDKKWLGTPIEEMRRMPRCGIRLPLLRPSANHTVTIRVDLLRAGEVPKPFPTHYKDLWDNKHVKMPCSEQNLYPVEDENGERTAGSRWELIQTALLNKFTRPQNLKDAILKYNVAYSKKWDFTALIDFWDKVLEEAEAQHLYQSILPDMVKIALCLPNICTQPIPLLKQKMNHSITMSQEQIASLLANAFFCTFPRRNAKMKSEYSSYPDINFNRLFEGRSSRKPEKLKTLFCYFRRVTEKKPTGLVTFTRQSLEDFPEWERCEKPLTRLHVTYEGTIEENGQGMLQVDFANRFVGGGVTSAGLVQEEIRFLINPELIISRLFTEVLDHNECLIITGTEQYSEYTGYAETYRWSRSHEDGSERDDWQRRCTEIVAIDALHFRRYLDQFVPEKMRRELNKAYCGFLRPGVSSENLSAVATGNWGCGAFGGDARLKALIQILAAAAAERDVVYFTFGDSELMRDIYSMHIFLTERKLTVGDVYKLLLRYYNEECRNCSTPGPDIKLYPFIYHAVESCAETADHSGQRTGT
row,IC50 [nM],Structure (SMILES)
1,< 50,"CC1(NS(=O)(=O)c2cc(N3CCN(C(=O)N4CCCC4)CC3)c3cnn(-c4nnc(C(F)F)s4)c3c2)COC1 [US20250346564, Example 35]"
2,< 50,"O=C(N1CCCC1)N1CCN(c2cc(S(=O)(=O)NC3(CF)COC3)cc3c2cnn3-c2nnc(C(F)F)s2)CC1 [US20250346564, Example 36]"
3,> 5000,"CC[C@@H]1C[C@]1(C)NS(=O)(=O)c1ccc2c(c1)c(=O)n(CC)c(=O)n2CC [US20250346564, Example 13A]"
